# From ChEMBL document CHEMBL4393717, “Development of novel human lactate dehydrogenase A inhibitors: High-throughput screening, synthesis, and biological evaluations” (Eur J Med Chem, 2019)
# The source made the active and inactive calls. The rule behind the calls is not given here.
# Legend:
# [1] = target: T1, L-lactate dehydrogenase A chain (Homo sapiens, UniProt P00338); assay: Inhibition of recombinant human full-length N-terminal His-tagged LDHA (1 to 332 residues) expressed in Escherichia coli using sodium pyruvate as substrate incubated for 10 mins
# MIA PaCa-2 [2] = assay: Antiproliferative activity against human MIAPaCa2 cells assessed as reduction in cell viability incubated for 72 hrs by MTT assay; format: functional, cell-based; conditions: MIA PaCa-2, 72 h
# A549 [3] = assay: Antiproliferative activity against human A549 cells assessed as reduction in cell viability at incubated for 72 hrs by MTT assay; format: functional, cell-based; conditions: A549, 72 h
# [4] = target: T1, L-lactate dehydrogenase A chain; assay: Inhibition of recombinant human full-length N-terminal His-tagged LDHA (1 to 332 residues) expressed in Escherichia coli at 10 uM using sodium pyruvate as substrate incubated for 10 mins relative to control
# MIA PaCa-2 [5] = assay: Antiproliferative activity against human MIAPaCa2 cells assessed as reduction in cell viability at 50 uM incubated for 72 hrs by MTT assay relative to control; format: functional; conditions: for inhibition at 50 µM: MIA PaCa-2, 72 h
# MCF7 = assay: Antiproliferative activity against human MCF7 cells assessed as reduction in cell viability at 50 uM incubated for 72 hrs by MTT assay relative to control; format: functional; conditions: for inhibition at 50 µM: MCF7, 72 h
# A549 [6] = assay: Antiproliferative activity against human A549 cells assessed as reduction in cell viability at 50 uM incubated for 72 hrs by MTT assay relative to control; format: functional; conditions: for inhibition at 50 µM: A549, 72 h
Structure (SMILES),EC50 [1] [µM],IC50 (MIA PaCa-2 [2]) [µM],IC50 (A549 [3]) [µM],inhibition [4] [%],inhibition at 50 µM (MIA PaCa-2 [5]) [%],inhibition at 50 µM (MCF7) [%],inhibition at 50 µM (A549 [6]) [%],inhibition (MIA PaCa-2 [5]),inhibition (MCF7),inhibition (A549 [6])
Cc1cc(N2CCC(CNS(=O)(=O)c3cccc4cccnc34)CC2)ccn1,0.34,> 50,> 50,> 90,25.8,,14.7,,,
O=C(c1ccco1)N1CCN(Cc2cc(=O)c(OCc3c(F)cccc3Cl)co2)CC1,5.6,> 50,> 50,,,,,,,
COc1cc(CNC(=O)c2c(OC)cc(=O)n3c2CCC3)cc(OC)c1OC,4.58,> 50,> 50,> 90,,,,inactive,inactive,inactive
Cc1ncn(CC(=O)N2CC(Oc3cc(C)n(C4CC4)c(=O)c3)C2)c(=O)c1C,6.4,> 50,> 50,> 90,,12.3,4.5,,,
Cc1ccccc1OCC(=O)NCc1nn(C2CCCC2)c2c1COCC2,5.7,> 50,> 50,> 90,,,,inactive,inactive,inactive
O=C(CCC1CCCCC1)N1CCN(c2ncnc3c2nnn3Cc2ccccc2)CC1,2.14,> 50,> 50,> 90,21.4,22.3,45.6,,,
COc1ccccc1OCC(=O)NC1CCC(Oc2nc(C)cc(C)n2)CC1 (stereo unspecified),4.1,> 50,> 50,> 90,25.7,9.7,5.9,,,
O=C(c1ccco1)N1CCN(Cc2cc(=O)c(OCc3ccc(F)cc3)co2)CC1,9.7,> 50,> 50,,,,,,,
O=C(CC1CSc2nc3c(cnn3-c3ccccc3)c(=O)n21)NCCCn1ccnc1 (stereo unspecified),7.8,> 50,> 50,> 90,15.8,14.7,36.9,,,
Cc1ncn(CC(=O)N2CCC(Oc3cncc(N(C)C)n3)C2)c(=O)c1C (stereo unspecified),2.9,> 50,> 50,> 90,25.8,50.1,47.8,,,
O=C(NCC(=O)N1CCCC(Cc2nc(C3CC3)no2)C1)c1ccccc1 (stereo unspecified),3.3,> 50,> 50,> 90,12.5,17.9,25.8,,,
N#Cc1cccnc1N1CCC(CNC(=O)C(=O)Nc2cccc(C(F)(F)F)c2)CC1,1.8,> 50,> 50,> 90,56.8,38.7,45.7,,,
COc1cccc(N2CCN(C3CCN(C(=O)c4cnn5c4OCCC5)CC3)CC2)c1,3.4,> 50,> 50,> 90,12.4,17.9,25.8,,,

# Second part, led by results:
EC50 [1] [µM],IC50 (MIA PaCa-2 [2]) [µM],IC50 (A549 [3]) [µM],inhibition [4] [%],Structure (SMILES),inhibition at 50 µM (MIA PaCa-2 [5]) [%],inhibition at 50 µM (MCF7) [%],inhibition at 50 µM (A549 [6]) [%],inhibition (MIA PaCa-2 [5]),inhibition (MCF7),inhibition (A549 [6])
12.4,> 50,> 50,,O=C(c1ccco1)N1CCN(Cc2cc(=O)c(OCc3ccccc3Cl)co2)CC1,,,,,,
0.68,12.5,14.7,> 90,O=C(c1ccco1)N1CCN(Cc2cc(=O)c(OCc3ccccc3)co2)CC1,95.6,93.4,84.7,,,
0.27,3.8,5.7,,O=C(c1ccco1)N1CCN(Cc2cc(=O)c(OCc3cccc(Cl)c3)co2)CC1,,,,,,
3.7,24.5,18.9,,O=C(c1ccco1)N1CCN(Cc2cc(=O)c(OCc3cccc(F)c3)co2)CC1,,,,,,
,18900,45800,,NC(=O)C(=O)O [SODIUM OXAMATE],,,,,,
,0.48,0.36,,O=C1N[C@](c2ccc(N3CCOCC3)cc2)(c2ccsc2)CC(O)=C1Sc1ccccc1Cl,,,,,,
